Tests used:
Assay in all cases: Test C postemergence
Type in all cases: in vivo
[1] = system: giant foxtail (Setaria faberii); conditions: Setaria faberi, post-emergence, 336 h, Postemergence, scale 0 to 100, read-out: Plant response rating, Foxtail, Giant
In short: (§1)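 Seeded loam-sand soil (preemergence) or young potted plants of 2-18 cm (postemergence) received test chemical formulated with surfactant in a non-phytotoxic solvent. Pots were kept in the greenhouse for 13-15 days before a visual 0-100 control rating relative to controls.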

[2] = system: ragweed (common ragweed, Ambrosia elatior); conditions: Ambrosia artemisiifolia, post-emergence, 336 h, Postemergence, scale 0 to 100, read-out: Plant response rating, Ragweed
In short: as §1

corn (Zea mays) = conditions: Zea mays, post-emergence, 336 h, Postemergence, scale 0 to 100
In short: as §1

[3] = system: blackgrass (Alopecurus myosuroides); conditions: Alopecurus myosuroides, post-emergence, 336 h, Postemergence, scale 0 to 100, read-out: Plant response rating, Blackgrass
In short: as §1

[4] = system: morningglory (Ipomoea coccinea); conditions: Ipomoea, post-emergence, 336 h, Postemergence, scale 0 to 100, read-out: Plant response rating, Morningglory
In short: as §1

[5] = system: large (Lg) crabgrass (Digitaria sanguinalis); conditions: Digitaria sanguinalis, post-emergence, 336 h, Postemergence, scale 0 to 100, read-out: Plant response rating, Crabgrass, Large
In short: as §1

[6] = system: winter wheat (Triticum aestivum); conditions: Triticum aestivum, post-emergence, 336 h, Postemergence, scale 0 to 100, read-out: Plant response rating, Wheat
In short: as §1

[7] = system: lambsquarters (Chenopodium album); conditions: Chenopodium album, post-emergence, 336 h, Postemergence, scale 0 to 100, read-out: Plant response rating, Lambsquarters
In short: as §1

[8] = system: velvetleaf (Abutilon theophrasti); conditions: Abutilon theophrasti, post-emergence, Postemergence, scale 0 to 100, read-out: Plant response rating, Velvetleaf
In short: as §1

[9] = system: Italian ryegrass (Lolium multiflorum); conditions: Lolium multiflorum, post-emergence, 336 h, Postemergence, scale 0 to 100, read-out: Plant response rating, Ryegrass, Italian
In short: as §1

[10] = system: oilseed rape (Brassica napus); conditions: Brassica napus, post-emergence, Postemergence, scale 0 to 100, read-out: Plant response rating, Oilseed Rape
In short: as §1

[11] = system: barnyardgrass (Echinochloa crus-galli); conditions: Echinochloa crus-galli, post-emergence, Postemergence, scale 0 to 100, read-out: Plant response rating, Barnyardgrass
In short: as §1

[12] = system: johnsongrass (Sorghum halepense); conditions: Sorghum halepense, post-emergence, 336 h, Postemergence, scale 0 to 100, read-out: Plant response rating, Johnsongrass
In short: as §1

soybean (Glycine max) = conditions: Glycine max, post-emergence, Postemergence, scale 0 to 100, read-out: Plant response rating, Soybean
In short: as §1

`Clc1cnc(Oc2cccc(Cl)c2Oc2ncc(Br)cn2)nc1` [Compound 17, 5-bromo-2-[2-chloro-6-[(5-chloro-2-pyrimidinyl)oxy]phenoxy]pyrimidine] showed a pest or weed control at 31 g/ha ([1]; 31 g ai/ha) of 5%, a pest or weed control at 62 g/ha ([1]; 62 g ai/ha) of 15% and a pest or weed control at 125 g/ha ([1]; 125 g ai/ha) of 10%. For the same compound, the pest or weed control at 250 g/ha ([1]; 250 g ai/ha) was 40%, the pest or weed control at 31 g/ha ([2]; 31 g ai/ha) was 50% and the pest or weed control at 62 g/ha ([2]; 62 g ai/ha) was 45%. For the same compound, the pest or weed control at 125 g/ha ([2]; 125 g ai/ha) was 60%, the pest or weed control at 250 g/ha ([2]; 250 g ai/ha) was 55% and the Corn plant response rating (crop injury, 0 = no effect, 100 = complete kill) at 31 g/ha (corn (Zea mays); 31 g ai/ha) was 5%. The Corn plant response rating (crop injury, 0 = no effect, 100 = complete kill) at 62 g/ha (corn (Zea mays); 62 g ai/ha) was 20%, the Corn plant response rating (crop injury, 0 = no effect, 100 = complete kill) at 125 g/ha (corn (Zea mays); 125 g ai/ha) was 20% and the Corn plant response rating (crop injury, 0 = no effect, 100 = complete kill) at 250 g/ha (corn (Zea mays); 250 g ai/ha) was 15%. For the same compound, the pest or weed control at 31 g/ha ([3]; 31 g ai/ha) was 5%, the pest or weed control at 62 g/ha ([3]; 62 g ai/ha) was 5% and the pest or weed control at 125 g/ha ([3]; 125 g ai/ha) was 15%. It also gave a pest or weed control at 250 g/ha ([3]; 250 g ai/ha) of 15%, a pest or weed control at 31 g/ha ([4]; 31 g ai/ha) of 90% and a pest or weed control at 62 g/ha ([4]; 62 g ai/ha) of 90%. The pest or weed control at 125 g/ha ([4]; 125 g ai/ha) was 85%, the pest or weed control at 250 g/ha ([4]; 250 g ai/ha) was 70% and the pest or weed control at 31 g/ha ([5]; 31 g ai/ha) was 5%. It also gave a pest or weed control at 62 g/ha ([5]; 62 g ai/ha) of 5%, a pest or weed control at 125 g/ha ([5]; 125 g ai/ha) of 10% and a pest or weed control at 250 g/ha ([5]; 250 g ai/ha) of 10%. For the same compound, the plant injury at 31 g/ha ([6]; 31 g ai/ha) was 0%, the plant injury at 62 g/ha ([6]; 62 g ai/ha) was 0% and the plant injury at 125 g/ha ([6]; 125 g ai/ha) was 0%. The plant injury at 250 g/ha ([6]; 250 g ai/ha) was 0%, the pest or weed control at 31 g/ha ([7]; 31 g ai/ha) was 80% and the pest or weed control at 62 g/ha ([7]; 62 g ai/ha) was 70%. For the same compound, the pest or weed control at 125 g/ha ([7]; 125 g ai/ha) was 90%, the pest or weed control at 250 g/ha ([7]; 250 g ai/ha) was 95% and the pest or weed control at 31 g/ha ([8]; 31 g ai/ha) was 30%. The pest or weed control at 62 g/ha ([8]; 62 g ai/ha) was 35%, the pest or weed control at 125 g/ha ([8]; 125 g ai/ha) was 40% and the pest or weed control at 250 g/ha ([8]; 250 g ai/ha) was 70%. For the same compound, the pest or weed control at 31 g/ha ([9]; 31 g ai/ha) was 0%, the pest or weed control at 62 g/ha ([9]; 62 g ai/ha) was 0% and the pest or weed control at 125 g/ha ([9]; 125 g ai/ha) was 5%. The pest or weed control at 250 g/ha ([9]; 250 g ai/ha) was 15%, the plant injury at 31 g/ha ([10]; 31 g ai/ha) was 50% and the plant injury at 62 g/ha ([10]; 62 g ai/ha) was 50%. The plant injury at 125 g/ha ([10]; 125 g ai/ha) was 80%, the plant injury at 250 g/ha ([10]; 250 g ai/ha) was 40% and the pest or weed control at 31 g/ha ([11]; 31 g ai/ha) was 5%. For the same compound, the pest or weed control at 62 g/ha ([11]; 62 g ai/ha) was 5%, the pest or weed control at 125 g/ha ([11]; 125 g ai/ha) was 10% and the pest or weed control at 250 g/ha ([11]; 250 g ai/ha) was 10%. The pest or weed control at 31 g/ha ([12]; 31 g ai/ha) was 5%, the pest or weed control at 62 g/ha ([12]; 62 g ai/ha) was 5% and the pest or weed control at 125 g/ha ([12]; 125 g ai/ha) was 5%. For the same compound, the pest or weed control at 250 g/ha ([12]; 250 g ai/ha) was 10%, the plant injury at 31 g/ha (soybean (Glycine max); 31 g ai/ha) was 55% and the plant injury at 62 g/ha (soybean (Glycine max); 62 g ai/ha) was 80%. The plant injury at 125 g/ha (soybean (Glycine max); 125 g ai/ha) was 90% and the plant injury at 250 g/ha (soybean (Glycine max); 250 g ai/ha) was 90%.

Reference: patent publication US20170190671A1, “BIS(ARYL)CATECHOL DERIVATIVES AS HERBICIDES” (E I DU PONT DE NEMOURS AND COMPANY, priority 2014, published 2017)
